According to patent US11014911B2, “CDK2 inhibitors” (Pfizer Inc., priority 2019, dated 2021):

Biological target: CDK2/Cyclin E1 full length (Homo sapiens (Human), UniProt P24941)
Experiment: CDK2/Cyclin E1 full length mobility shift assay
Assay type: biochemical

| Ki [nM] | Structure (SMILES) |
| --- | --- |
| 0.3 | COc1cnc(CC(=O)Nc2cc([C@H]3CC[C@@H](OC(=O)N4CCC4(C)C)C3)[nH]n2)cn1 [Example 602, (1R,3S)-3-(3-{[(5-methoxypyrazin-2-yl)acetyl]amino}-1H-pyrazol-5-yl)cyclopentyl 2,2-dimethylazetidine-1-carboxylate] |
| 0.48 | Cc1cc(CC(=O)Nc2cc([C@H]3CC[C@@H](OC(=O)N4CCCC[C@@H]4C)C3)[nH]n2)on1 [Example 640, (1R,3S)-3-(3-{[(3-methyl-1,2-oxazol-5-yl)acetyl]amino}-1H-pyrazol-5-yl)cyclopentyl (2S)-2-methylpiperidine-1-carboxylate] |
| 2.41 | O=C(Cc1cc(F)cc(F)c1)Nc1cc([C@@H]2CC[C@H](OC(=O)NC[C@H]3C[C@@H]3CO)C2)[nH]n1 [Example 579, (1S,3R)-3-(3-{[(3,5-difluorophenyl)acetyl]amino}-1H-pyrazol-5-yl)cyclopentyl {[(1S,2S)-2-(hydroxymethyl)cyclopropyl]-methyl}carbamate] |
| 0.63 | C[C@H](NC(=O)O[C@@H]1CC[C@H](c2cc(NC(=O)Cc3cnn(C)c3)n[nH]2)C1)[C@@H](C)F [Example 380, (1R,3S)-3-(3-{[(1-methyl-1H-pyrazol-4-yl)acetyl]amino}-1H-pyrazol-5-yl)cyclopentyl [(2S,3R)-3-fluorobutan-2-yl]carbamate] |
| 0.3 | Cc1coc(CC(=O)Nc2cc([C@H]3CC[C@@H](OC(=O)NC(C)(C)C)C3)[nH]n2)n1 [Example 296, (1R,3S)-3-(3-{[(4-methyl-1,3-oxazol-2-yl)acetyl]amino}-1H-pyrazol-5-yl)cyclopentyl tert-butylcarbamate] |
| 2.89 | CC(C)NC(=O)O[C@@H]1CC[C@H](c2cc(NC(=O)c3cncn3C)n[nH]2)C1 [Example 260, (1R,3S)-3-(3-{[(1-methyl-1H-imidazol-5-yl)carbonyl]amino}-1H-pyrazol-5-yl)cyclopentyl propan-2-ylcarbamate] |
| 0.38 | COCc1cc(C(=O)Nc2cc([C@H]3CC[C@@H](OC(=O)NC4(CC(F)(F)F)CC4)C3)[nH]n2)n(C)n1 [Example 457, (1R,3S)-3-[3-({[3-(methoxymethyl)-1-methyl-1H-pyrazol-5-yl]carbonyl}amino)-1H-pyrazol-5-yl]cyclopentyl [1-(2,2,2-trifluoroethyl)cyclopropyl] carbamate] |
| 3.71 | COc1ccc(CC(=O)Nc2cc([C@H]3CC[C@@H](OC(=O)NC4CCOCC4)C3)[nH]n2)cc1 [Example 502, (1R,3S)-3-(3-{[(4-methoxyphenyl)acetyl]amino}-1H-pyrazol-5-yl)cyclopentyl tetrahydro-2H-pyran-4-ylcarbamate] |
| 1.6 | CC[C@H](C)NC(=O)O[C@@H]1CC[C@H](c2cc(NC(=O)Cc3nnc(C)o3)n[nH]2)C1 [Example 334, (1R,3S)-3-(3-{[(5-methyl-1,3,4-oxadiazol-2-yl)acetyl]amino}-1H-pyrazol-5-yl)cyclopentyl (2S)-butan-2-ylcarbamate] |
| 0.97 | Cc1cc(CC(=O)Nc2cc([C@@H]3CC[C@H](OC(=O)NC(C)C)C3)[nH]n2)no1 [Example 268, (1S,3R)-3-(3-{[(5-methyl-1,2-oxazol-3-yl)acetyl]amino}-1H-pyrazol-5-yl)cyclopentyl propan-2-ylcarbamate] |
| 0.84 | CC[C@H](C)NC(=O)O[C@@H]1CC[C@H](c2cc(NC(=O)Cc3ccccc3S(C)(=N)=O)n[nH]2)C1 (single isomer, unassigned) [Example 369] |
| 1.38 | CCC1CCN1C(=O)O[C@@H]1CC[C@H](c2cc(NC(=O)Cc3ncc(C)o3)n[nH]2)C1 (single isomer, unassigned) [Example 599] |
| 0.69 | CC(C)(C)NC(=O)O[C@@H]1CC[C@H](c2cc(NC(=O)Cc3ccc(Cl)cn3)n[nH]2)C1 [Example 310, (1R,3S)-3-(3-{[(5-chloropyridin-2-yl)acetyl]amino}-1H-pyrazol-5-yl)cyclopentyl tert-butylcarbamate] |
| 1.99 | O=C(Cc1cc(F)cc(F)c1)Nc1cc([C@@H]2CC[C@H](OC(=O)NC[C@H]3C[C@H](O)C3)C2)[nH]n1 [Example 576, (1S,3R)-3-(3-{[(3,5-difluorophenyl)acetyl]amino}-1H-pyrazol-5-yl)cyclopentyl [(trans-3-hydroxycyclobutyl)methyl] carbamate] |
| 3.91 | COc1ccc(CC(=O)Nc2cc([C@H]3CC[C@@H](OC(=O)N4C[C@H](OC)[C@H]4C)C3)[nH]n2)cn1 [Example 620, (1R,3S)-3-(3-{[(6-methoxypyridin-3-yl)acetyl]amino}-1H-pyrazol-5-yl)cyclopentyl (2R,3S)-3-methoxy-2-methylazetidine-1-carboxylate] |
| 2.63 | Cc1ncc(CC(=O)Nc2cc([C@H]3CC[C@@H](OC(=O)N[C@H]4CCC[C@H]4C)C3)[nH]n2)s1 [Example 464, (1R,3S)-3-(3-{[(2-methyl-1,3-thiazol-5-yl)acetyl]amino}-1H-pyrazol-5-yl)cyclopentyl [(1S,2R)-2-methylcyclopentyl]carbamate] |

Continued, compound first:

| Structure (SMILES) | Ki [nM] |
| --- | --- |
| CC[C@H](C)NC(=O)O[C@@H]1CC[C@H](c2cc(NC(=O)Cc3cc(OC)ncc3OC)n[nH]2)C1 [Example 358, (1R,3S)-3-(3-{[(2,5-dimethoxypyridin-4-yl)acetyl]amino}-1H-pyrazol-5-yl)cyclopentyl (2S)-butan-2-ylcarbamate] | 1.65 |
| CC[C@H](C)NC(=O)O[C@@H]1CC[C@H](c2cc(NC(=O)Cc3ccn(C)n3)n[nH]2)C1 [Example 328, (1R,3S)-3-(3-{[(1-methyl-1H-pyrazol-3-yl)acetyl]amino}-1H-pyrazol-5-yl)cyclopentyl (2S)-butan-2-ylcarbamate] | 1.77 |
| Cc1ncc(CC(=O)Nc2cc([C@H]3CC[C@@H](OC(=O)N4C[C@@H](C#N)[C@@H]4C)C3)[nH]n2)s1 (single isomer, unassigned) [Example 159] | 3.63 |
| COc1cnc(CC(=O)Nc2cc([C@H]3CC[C@@H](OC(=O)NC4(C)CCOC4)C3)[nH]n2)cn1 (single isomer, unassigned) [Example 486] | 1.46 |
| C[C@H]1[C@H](C#N)CN1C(=O)O[C@@H]1CC[C@H](c2cc(NC(=O)Cc3ccccc3)n[nH]2)C1 (single isomer, unassigned) [Example 162] | 3.01 |
| CC1(NC(=O)O[C@@H]2CC[C@H](c3cc(NC(=O)Cc4ccccc4)n[nH]3)C2)CCOC1 (single isomer, unassigned) [Example 125] | 0.34 |
| CCCNC(=O)O[C@@H]1CC[C@H](c2cc(NC(=O)Cc3ccccc3S(=O)(=O)C(C)C)n[nH]2)C1 [Example 211, (1R,3S)-3-[3-({[2-(propan-2-ylsulfonyl)phenyl]acetyl}amino)-1H-pyrazol-5-yl]cyclopentyl propylcarbamate] | 4.87 |
| CCCNC(=O)O[C@H]1CC[C@@H](c2cc(NC(=O)Cc3cn4ccccc4n3)n[nH]2)C1 [Example 191, (1S,3R)-3-{3-[(imidazo[1,2-a]pyridin-2-ylacetyl)amino]-1H-pyrazol-5-yl}cyclopentyl propylcarbamate] | 3.33 |
| Cc1ccc(C(=O)Nc2cc([C@H]3CC[C@@H](OC(=O)NC4(CC(F)(F)F)CC4)C3)[nH]n2)cn1 [Example 452, (1R,3S)-3-(3-{[(6-methylpyridin-3-yl)carbonyl]amino}-1H-pyrazol-5-yl)cyclopentyl [1-2,2,2-trifluoroethyl)cyclopropyl] carbamate] | 0.51 |
| CCC1(NC(=O)O[C@@H]2CC[C@H](c3cc(NC(=O)Cc4cnc(OC)cn4)n[nH]3)C2)CC1 [Example 450, (1R,3S)-3-(3-{[(5-methoxypyrazin-2-yl)acetyl]amino}-1H-pyrazol-5-yl)cyclopentyl (1-ethylcyclopropyl)carbamate] | 0.38 |
| CC[C@H](C)NC(=O)O[C@@H]1CC[C@H](c2cc(NC(=O)Cc3ncc(C)s3)n[nH]2)C1 [Example 341, (1R,3S)-3-(3-{[(5-methyl-1,3-thiazol-2-yl)acetyl]amino}-1H-pyrazol-5-yl)cyclopentyl (2S)-butan-2-ylcarbamate] | 0.64 |
| CCCNC(=O)O[C@H]1CC[C@@H](c2cc(NC(=O)Cc3cn4c(C)csc4n3)n[nH]2)C1 [Example 199, (1S,3R)-3-(3-{[(3-methylimidazo[2,1-b][1,3]thiazol-6-yl)acetyl]amino}-1H-pyrazol-5-yl)cyclopentyl propylcarbamate] | 3.45 |
| CCC(CO)CNC(=O)O[C@@H]1CC[C@H](c2cc(NC(=O)Cc3cnc(C)o3)n[nH]2)C1 (single isomer, unassigned) [Example 527] | 2.63 |
| CC(C)NC(=O)O[C@@H]1CC[C@H](c2cc(NC(=O)C3COc4ccccc43)n[nH]2)C1 (single isomer, unassigned) [Example 57] | 3.54 |
| CC[C@H](C)NC(=O)O[C@@H]1CC[C@H](c2cc(NC(=O)Cc3cn(CC(F)(F)F)nn3)n[nH]2)C1 [Example 366, (1R,3S)-3-[3-({[1-(2,2,2-trifluoroethyl)-1H-1,2,3-triazol-4-yl]acetyl}amino)-1H-pyrazol-5-yl]cyclopentyl (2S)-butan-2-ylcarbamate] | 1.79 |
| CCCNC(=O)O[C@@H]1CC[C@H](c2cc(NC(=O)Cc3ccccc3S(C)(=N)=O)n[nH]2)C1 (single isomer, unassigned) [Example 202] | 1.85 |
| COc1cc(C(=O)Nc2cc([C@H]3CC[C@@H](OC(=O)N[C@@H](C)CC(F)(F)F)C3)[nH]n2)n(C)n1 [Example 94] | 0.15 |
| CC[C@H](C)NC(=O)O[C@@H]1CC[C@H](c2cc(NC(=O)Cc3cnn(C)c3C(F)(F)F)n[nH]2)C1 [Example 365, (1R,3S)-3-[3-({[1-methyl-5-(trifluoromethyl)-1H-pyrazol-4-yl]acetyl}amino)-1H-pyrazol-5-yl]cyclopentyl (2S)-butan-2-ylcarbamate] | 2.08 |
| O=C(Cc1ccc(C(F)(F)F)nc1)Nc1cc([C@@H]2CC[C@H](OC(=O)NC[C@H]3C[C@H](O)C3)C2)[nH]n1 [Example 577, (1S,3R)-3-[3-({[6-(trifluoromethyl)pyridin-3-yl]acetyl}amino)-1H-pyrazol-5-yl]cyclopentyl[(trans-3-hydroxycyclobutyl)methyl]-carbamate] | 3.36 |
| Cc1cc(CC(=O)Nc2cc([C@H]3CC[C@@H](OC(=O)NC4(CC(F)(F)F)CC4)C3)[nH]n2)on1 [Example 453, (1R,3S)-3-(3-{[(3-methyl-1,2-oxazol-5-yl)acetyl]amino}-1H-pyrazol-5-yl)cyclopentyl [1-(2,2,2-trifluoroethyl)cyclopropyl]carbamate] | 0.29 |
